Results from ChEMBL document CHEMBL5335826, “Biochemical and Structural Studies of the Carminomycin 4-O-Methyltransferase DnrK” (J Nat Prod, 2024).

Key:
A549 = assay: Cytotoxicity against human A549 cells assessed as reduction in cell viability incubated for 72 hrs by alamar blue assay; type: functional, cell-based; settings: A549, 72 h
PC-3 = assay: Cytotoxicity against human PC-3 cells assessed as reduction in cell viability incubated for 72 hrs by alamar blue assay; type: functional, cell-based; settings: PC-3, 72 h

COc1cc(O)c2c(c1)C(=O)c1cc3c(c(O)c1C2=O)[C@@H](O[C@@H]1O[C@@H](C)[C@H](OC)[C@@H](O)[C@H]1OC)[C@H](OC)[C@](C)(O)C3=O
IC50 (A549): 2800 nM | IC50 (PC-3): 3100 nM

COc1cccc2c1C(=O)c1c(cc3c(c1O)[C@@H](O[C@@H]1O[C@@H](C)[C@H](O)[C@@H](O)[C@H]1OC)[C@H](OC)[C@](C)(O)C3=O)C2=O
IC50 (A549): 13800 nM | IC50 (PC-3): 4300 nM

CO[C@H]1[C@H](O[C@@H]2c3c(cc4c(c3O)C(=O)c3c(O)cccc3C4=O)C(=O)[C@@](C)(O)[C@H]2OC)O[C@@H](C)[C@H](O)[C@H]1O [ARANCIAMYCIN]
IC50 (A549): 2700 nM | IC50 (PC-3): 1100 nM

CC(=O)[C@]1(O)Cc2c(O)c3c(c(O)c2[C@@H](O[C@H]2C[C@H](N)[C@H](O)[C@H](C)O2)C1)C(=O)c1c(O)cccc1C3=O [CARUBICIN]
IC50 (A549): 13.1 nM | IC50 (PC-3): 35 nM

COc1cccc2c1C(=O)c1c(O)c3c(c(O)c1C2=O)C[C@@](O)(C(C)=O)C[C@@H]3O[C@H]1C[C@H](N)[C@H](O)[C@H](C)O1 [DAUNORUBICIN]
IC50 (A549): 199 nM | IC50 (PC-3): 170 nM
